From patent publication US10953027B2, “Active agents and methods of their use for the treatment of metabolic disorders and nonalcoholic fatty liver disease” (Flagship Pioneering Innovations V, Inc., priority 2018, dated 2021)

Experiments:
Assay type in all cases: in vitro ADME
[1] = Assay 3. Fecal Incubation Stability; details: 1 or 10 μM, human fecal slurry, anaerobic
Protocol: Assay 3. Fecal Incubation Stability. This assay was used to assess the stability of an acylated active agent in a large intestine. All experiments were performed in an anaerobic chamber containing 90% nitrogen, 5% hydrogen and 5% carbon dioxide. Human fecal matter in a slurry (15% WV) is added to 96 well plates containing YCFA media or other suitable media (1.6 mL). Compounds were added to each individual well to reach a final analyte concentration of 1 or 10 μM, and the material was mixed by pipetting. At set time points a sample was removed, quenched with acetonitrile, and analyzed by LC/MS.

[2] = Assay 2. Stability in Simulated Intestinal Fluid (SIF); details: 1 μM, 37° C., SIF pH 6.7 with pancreatin
Method in brief: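 Acylated compounds at 1 μM (from 1 mM DMSO stock) in fresh SIF: FaSSIF with pancreatin in pH 6.7 phosphate buffer, agitated at 37 °C. Aliquots from T0 onward quenched with 1 volume acetonitrile; LC/MS gives degradation rates.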

[3] = Assay 1. Stability in Simulated Gastric Fluid (SGF); details: 1 μM, 37° C., SGF pH 1.6 with pepsin
Method in brief: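 Acylated compounds at a final 1 μM (diluted from 1 mM DMSO stock) were incubated at 37 °C in SGF of pH 1.6 NaCl buffer with FaSSIF powder and 0.1 mg/mL pepsin. Aliquots were quenched with acetonitrile at T0 and regular intervals, and degradation rates were determined by LC/MS.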

Structure (SMILES)	Assay 3 (% Remaining at 24 h) [1]	Assay 2 (SIF) (% @ Remaining 4 hours) [2]	Assay 1 (SGF) (% Remaining @ 1 hours) [3]
[2H]C([2H])([2H])C([2H])([2H])CC(=O)O[C@@H]1[C@@H](OC(=O)CC([2H])([2H])C([2H])([2H])[2H])[C@H](Oc2ccc(N)cc2C(=O)O)OC[C@H]1OC(=O)CC([2H])([2H])C([2H])([2H])[2H] [Compound 230, 5-amino-2-{[(2S,3R,4S,5R)-3,4,5-tris[(3,3,4,4,4-^2H5)butanoyloxy]oxan-2-yl]oxy}benzoic Acid]	B (B: 25-75% of the tested compound remaining)	–	–
O=C(CCc1c[nH]c2ccccc12)O[C@@H]1O[C@H](C(=O)O)[C@@H](OC(=O)CCc2c[nH]c3ccccc23)[C@H](OC(=O)CCc2c[nH]c3ccccc23)[C@H]1OC(=O)CCc1c[nH]c2ccccc12 [Compound 82, (2S,3S,4S,5R,6S)-3,4,5,6-tetrakis({[3-(1H-indol-3-yl)propanoyl]oxy})oxane-2-carboxylic Acid]	A (A: <25% of the tested compound remaining)	A (A: <25% of the tested compound remaining)	–
[2H]C([2H])([2H])C([2H])([2H])CC(=O)O[C@@H]1[C@@H](OC(=O)CC([2H])([2H])C([2H])([2H])[2H])[C@H](Oc2ccc(N)cc2C(=O)O)OC[C@H]1O [Compound 234, 5-amino-2-{[(2S,3R,4S,5R)-3,4-bis[(3,3,4,4,4-^2H5)butanoyloxy]-5-hydroxyoxan-2-yl]oxy}benzoic Acid]	B (B: 25-75% of the tested compound remaining)	–	–
CCC(=O)O[C@@H]1[C@H](OC(=O)CC)C=C(C(=O)O)C[C@H]1OC(=O)CC [Compound 254, (3R,4S,5R)-3,4,5-tris(propanoyloxy)cyclohex-1-ene-1-carboxylic Acid]	B (B: 25-75% of the tested compound remaining)	–	–
CCCC(=O)Oc1ccc2c(c1)oc(=O)c1cc(OC(=O)CCC)c(OC(=O)CCC)cc12 [Compound 248, 8,9-bis(butanoyloxy)-6-oxo-6H-benzo[c]chromen-3-yl Butanoate]	A (A: <25% of the tested compound remaining)	–	–
CCC(=O)O[C@@H]1[C@@H](OC(=O)CC)[C@H](OC(=O)CC)CO[C@H]1O [Compound 161, (2R,3R,4S,5R)-2-hydroxy-4,5-bis(propanoyloxy)oxan-3-yl Propanoate]	–	A (A: <25% of the tested compound remaining)	C (C: >75% of the tested compound remaining)
O=C(CCc1c[nH]c2ccccc12)O[C@H]1OC[C@@H](OC(=O)CCc2c[nH]c3ccccc23)[C@@H](OC(=O)CCc2c[nH]c3ccccc23)[C@H]1OC(=O)CCc1c[nH]c2ccccc12 [Compound 182, (2R,3R,4R,5R)-3,4,5-tris({[3-(1H-indol-3-yl)propanoyl]oxy})oxan-2-yl 3-(1H-indol-3-yl)propanoate]	–	A (A: <25% of the tested compound remaining)	C (C: >75% of the tested compound remaining)
CC(=O)OC[C@H]1O[C@@H](Oc2c(C)c(C)c3c(c2C)CC[C@@](C)(CCC[C@H](C)CCC[C@H](C)CCCC(C)C)O3)[C@H](OC(C)=O)[C@@H](OC(C)=O)[C@@H]1OC(C)=O [Compound 63, [(2R,3R,4S,5R,6S)-3,4,5-triacetoxy-6-[(2R)-2,5,7,8-tetramethyl-2-[(4R,8R)-4,8,12-trimethyltridecyl]chroman-6-yl]oxy-tetrahydropyran-2-yl]methyl Acetate]	–	C (C: >75% of the tested compound remaining)	C (C: >75% of the tested compound remaining)
CCC(=O)OC1OC[C@@H](OC(=O)CC)[C@H](OC(=O)CC)[C@H]1OC(=O)CC (stereo partly drawn) [Compound 162, (3R,4S,5R)-3,4,5-tris(propanoyloxy)oxan-2-yl Propanoate]	–	A (A: <25% of the tested compound remaining)	C (C: >75% of the tested compound remaining)
C[C@@H]1CCOC(C)(C(=O)Oc2ccc(/C=C/c3cc(OC(=O)C4(C)OCC[C@@H](C)O4)cc(OC(=O)C4(C)OCC[C@@H](C)O4)c3)cc2)O1 (stereo partly drawn) [Compound 65, [4-[(E)-2-[3,5-bis[[(4R)-2,4-dimethyl-1,3-dioxane-2-carbonyl]oxy]phenyl]vinyl]phenyl] (4R)-2,4-dimethyl-1,3-dioxane-2-carboxylate]	–	C (C: >75% of the tested compound remaining)	C (C: >75% of the tested compound remaining)
O=C(CCc1c[nH]c2ccccc12)Oc1cc(C(=O)O)cc(OC(=O)CCc2c[nH]c3ccccc23)c1OC(=O)CCc1c[nH]c2ccccc12 [Compound 240, 3,4,5-tris({[3-(1H-indol-3-yl)propanoyl]oxy})benzoic Acid]	–	C (C: >75% of the tested compound remaining)	A (A: <25% of the tested compound remaining)
CCCC(=O)O[C@H](C)CC(=O)Oc1ccc(/C=C/c2cc(OC(=O)C[C@@H](C)OC(=O)CCC)cc(OC(=O)C[C@@H](C)OC(=O)CCC)c2)cc1 [Compound 13, [4-[(E)-2-[3,5-bis[[(3R)-3-butanoyloxybutanoyl]oxy]phenyl]vinyl]phenyl] (3R)-3-butanoyloxy-butanoate]	–	B (B: 25-75% of the tested compound remaining)	C (C: >75% of the tested compound remaining)
CCCC(=O)Oc1cc(OC(=O)CCC)c2c(=O)c(OC(=O)CCC)c(-c3cc(OC(=O)CCC)c(OC(=O)CCC)c(OC(=O)CCC)c3)oc2c1 [Compound 200, 3,5-bis(butanoyloxy)-4-oxo-2-[3,4,5-tris(butanoyloxy)phenyl]-4H-chromen-7-yl Butanoate]	–	C (C: >75% of the tested compound remaining)	C (C: >75% of the tested compound remaining)
C=C1CC[C@H](OC(=O)C2(C)OCC[C@@H](C)O2)C/C1=C/C=C1\CCC[C@]2(C)[C@@H]([C@H](C)CCCC(C)C)CC[C@@H]12 (stereo partly drawn) [Compound 70, [(1 S,3Z)-3-[(2E)-2-[(1R,3aS,7aR)-1-[(1R)-1,5-dimethylhexyl]-7a-methyl-2,3,3a,5,6,7-hexahydro-1H-inden-4-ylidene]ethylidene]-4-methylene-cyclohexyl] (4R)-2,4-dimethyl-1,3-dioxane-2-carboxylate]	–	C (C: >75% of the tested compound remaining)	B (B: 25-75% of the tested compound remaining)
CCCC(=O)O[C@H](C)CCOC(=O)Oc1ccc(/C=C/c2cc(OC(=O)OCC[C@@H](C)OC(=O)CCC)cc(OC(=O)OCC[C@@H](C)OC(=O)CCC)c2)cc1 [Compound 75, (2R,2′R)-((((5-((E)-4-((((R)-3-(butyryloxy)butoxy)carbonyl)oxy)styryl)-1,3-phenylene)bis(oxy))bis(carbonyl))bis(oxy))bis(butane-4,2-diyl) dibutyrate]	–	B (B: 25-75% of the tested compound remaining)	C (C: >75% of the tested compound remaining)
CCCC(=O)Oc1cc(OC(=O)CCC)c2c(=O)cc(-c3ccc(OC(=O)CCC)c(OC(=O)CCC)c3)oc2c1 [Compound 202, 2-[3,4-bis(butanoyloxy)phenyl]-5-(butanoyloxy)-4-oxo-4H-chromen-7-yl Butanoate]	–	A (A: <25% of the tested compound remaining)	C (C: >75% of the tested compound remaining)
O=C(CCc1c[nH]c2ccccc12)O[C@@H]1[C@H](OC(=O)CCc2c[nH]c3ccccc23)COC(O)[C@@H]1OC(=O)CCc1c[nH]c2ccccc12 (stereo partly drawn) [Compound 167, (3R,4R,5R)-6-hydroxy-4,5-bis({[3-(1H-indol-3-yl)propanoyl]oxy})oxan-3-yl 3-(1H-indol-3-yl)propanoate]	–	A (A: <25% of the tested compound remaining)	C (C: >75% of the tested compound remaining)
O=C(Cc1c[nH]c2ccccc12)O[C@@H]1OC[C@H](OC(=O)Cc2c[nH]c3ccccc23)[C@H](OC(=O)Cc2c[nH]c3ccccc23)[C@H]1OC(=O)Cc1c[nH]c2ccccc12 [Compound 178, (2S,3R,4S,5S)-3,4,5-tris({[2-(1H-indol-3-yl)acetyl]oxy})oxan-2-yl 2-(1H-indol-3-yl)acetate]	A (A: <25% of the tested compound remaining)	–	–
CCCC(=O)O[C@@H]1[C@@H](OC(=O)CCC)[C@@H](OC(=O)CCc2c[nH]c3ccccc23)OC[C@@H]1OC(=O)CCC [Compound 114, (2R,3R,4S,5S)-4,5-bis(butanoyloxy)-2-{[3-(1H-indol-3-yl)propanoyl]oxy}oxan-3-yl Butanoate]	–	A (A: <25% of the tested compound remaining)	B (B: 25-75% of the tested compound remaining)
O=C(Cc1c[nH]c2ccccc12)Oc1ccc(/C=C/c2cc(OC(=O)Cc3c[nH]c4ccccc34)cc(OC(=O)Cc3c[nH]c4ccccc34)c2)cc1 [Compound 260, 4-[(1E)-2-[3,5-bis({[2-(1H-indol-3-yl)acetyl]oxy})phenyl]ethenyl]phenyl 2-(1H-indol-3-yl)acetate]	A (A: <25% of the tested compound remaining)	–	–
